Here are results for three compounds from ChEMBL document CHEMBL5678810.

Assay [1] concerns the target Ribosomal protein S6 kinase beta-1 (Homo sapiens) (UniProt P23443). The assay is described as follows: Inhibition of T7 bacteriophage fused human S6K1 at 10 uM by KINOMEscan analysis relative to control.
In assay [2] the target is Tyrosine-protein kinase SYK (Homo sapiens) (UniProt P43405). The assay is described as follows: Inhibition of T7 bacteriophage fused human SYK at 10 uM by KINOMEscan analysis relative to control.
Assay [3] has as its target T1, Mitogen-activated protein kinase kinase kinase 7 (Homo sapiens) (UniProt O43318).
T1 sequence (whole entry): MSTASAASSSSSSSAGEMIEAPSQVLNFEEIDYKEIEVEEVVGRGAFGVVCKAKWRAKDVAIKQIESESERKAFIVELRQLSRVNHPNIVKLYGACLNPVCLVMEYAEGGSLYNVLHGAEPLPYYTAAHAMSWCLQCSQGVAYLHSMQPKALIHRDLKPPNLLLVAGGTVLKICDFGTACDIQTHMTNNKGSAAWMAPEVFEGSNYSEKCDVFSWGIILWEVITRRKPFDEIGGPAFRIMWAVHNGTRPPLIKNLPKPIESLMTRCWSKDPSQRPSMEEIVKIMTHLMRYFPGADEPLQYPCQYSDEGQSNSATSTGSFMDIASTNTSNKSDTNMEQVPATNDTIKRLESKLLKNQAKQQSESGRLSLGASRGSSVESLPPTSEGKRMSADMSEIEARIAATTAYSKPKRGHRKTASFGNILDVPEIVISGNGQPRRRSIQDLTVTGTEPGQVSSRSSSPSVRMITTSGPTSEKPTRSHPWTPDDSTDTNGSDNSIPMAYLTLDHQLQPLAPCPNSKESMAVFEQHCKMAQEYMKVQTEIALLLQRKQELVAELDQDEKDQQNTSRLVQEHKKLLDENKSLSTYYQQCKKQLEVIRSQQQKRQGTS
Nature of the assay: Inhibition of T7 bacteriophage fused human TAK1 at 10 uM by KINOMEscan analysis relative to control.

The target in assay [4] is TGF-beta receptor type-2 (Homo sapiens) (UniProt P37173). Nature of the assay: Inhibition of T7 bacteriophage fused human TGFBR2 at 10 uM by KINOMEscan analysis relative to control.
Chain of TGF-beta receptor type-2 (Homo sapiens) (P37173 whole entry, the tested form may be a part): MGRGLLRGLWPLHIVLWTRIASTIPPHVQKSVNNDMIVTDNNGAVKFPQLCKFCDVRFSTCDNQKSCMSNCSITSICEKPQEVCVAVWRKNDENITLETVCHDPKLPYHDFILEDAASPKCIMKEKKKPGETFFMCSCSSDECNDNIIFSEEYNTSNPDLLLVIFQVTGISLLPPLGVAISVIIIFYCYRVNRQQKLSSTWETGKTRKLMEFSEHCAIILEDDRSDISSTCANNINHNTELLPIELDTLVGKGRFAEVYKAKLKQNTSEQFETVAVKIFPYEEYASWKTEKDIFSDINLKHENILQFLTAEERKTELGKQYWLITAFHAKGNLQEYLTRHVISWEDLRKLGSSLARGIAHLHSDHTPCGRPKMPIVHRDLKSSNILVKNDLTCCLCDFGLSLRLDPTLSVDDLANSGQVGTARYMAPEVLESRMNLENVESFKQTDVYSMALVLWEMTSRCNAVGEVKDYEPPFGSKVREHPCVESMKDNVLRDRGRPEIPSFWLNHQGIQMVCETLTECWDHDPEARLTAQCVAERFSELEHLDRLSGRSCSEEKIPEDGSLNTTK
Assay [5] deals with Tyrosine-protein kinase receptor Tie-1 (Homo sapiens) (UniProt P35590). The assay is described as follows: Inhibition of T7 bacteriophage fused human TIE1 at 10 uM by KINOMEscan analysis relative to control.
Chain of Tyrosine-protein kinase receptor Tie-1 (Homo sapiens) (P35590 whole entry, the tested form may be a part): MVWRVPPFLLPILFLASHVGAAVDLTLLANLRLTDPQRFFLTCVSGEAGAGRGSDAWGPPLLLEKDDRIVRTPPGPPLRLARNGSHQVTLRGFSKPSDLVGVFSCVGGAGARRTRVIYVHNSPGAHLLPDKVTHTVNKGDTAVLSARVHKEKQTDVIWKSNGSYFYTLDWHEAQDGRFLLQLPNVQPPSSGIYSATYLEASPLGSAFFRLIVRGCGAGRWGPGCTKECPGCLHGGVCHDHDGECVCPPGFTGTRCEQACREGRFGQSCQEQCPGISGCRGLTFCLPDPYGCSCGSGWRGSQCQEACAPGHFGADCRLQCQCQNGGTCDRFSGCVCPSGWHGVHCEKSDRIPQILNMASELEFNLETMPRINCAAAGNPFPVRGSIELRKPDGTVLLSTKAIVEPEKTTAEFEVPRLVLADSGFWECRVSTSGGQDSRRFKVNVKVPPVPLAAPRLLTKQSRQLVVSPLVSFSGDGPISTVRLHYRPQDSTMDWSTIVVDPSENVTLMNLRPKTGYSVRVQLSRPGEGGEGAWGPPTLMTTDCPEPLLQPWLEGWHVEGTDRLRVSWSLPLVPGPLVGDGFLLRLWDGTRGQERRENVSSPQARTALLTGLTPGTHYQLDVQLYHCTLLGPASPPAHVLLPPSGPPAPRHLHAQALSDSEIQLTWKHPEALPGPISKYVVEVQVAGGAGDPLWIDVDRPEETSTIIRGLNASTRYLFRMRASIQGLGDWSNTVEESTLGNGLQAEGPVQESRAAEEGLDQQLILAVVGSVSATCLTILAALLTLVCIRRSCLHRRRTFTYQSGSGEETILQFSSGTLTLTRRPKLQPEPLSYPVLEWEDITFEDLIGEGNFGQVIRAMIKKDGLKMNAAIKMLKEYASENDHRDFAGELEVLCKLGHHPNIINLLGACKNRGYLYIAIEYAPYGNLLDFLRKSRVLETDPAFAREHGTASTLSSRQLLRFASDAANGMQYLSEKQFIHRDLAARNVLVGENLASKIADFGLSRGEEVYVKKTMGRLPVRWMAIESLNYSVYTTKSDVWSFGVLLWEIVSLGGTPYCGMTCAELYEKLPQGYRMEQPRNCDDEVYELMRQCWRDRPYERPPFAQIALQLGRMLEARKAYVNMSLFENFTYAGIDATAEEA
In assay [6] the target is Angiopoietin-1 receptor (Homo sapiens) (UniProt Q02763). Nature of the assay: Inhibition of T7 bacteriophage fused human TIE2 at 10 uM by KINOMEscan analysis relative to control.
Chain of Angiopoietin-1 receptor (Homo sapiens) (Q02763 whole entry, the tested form may be a part): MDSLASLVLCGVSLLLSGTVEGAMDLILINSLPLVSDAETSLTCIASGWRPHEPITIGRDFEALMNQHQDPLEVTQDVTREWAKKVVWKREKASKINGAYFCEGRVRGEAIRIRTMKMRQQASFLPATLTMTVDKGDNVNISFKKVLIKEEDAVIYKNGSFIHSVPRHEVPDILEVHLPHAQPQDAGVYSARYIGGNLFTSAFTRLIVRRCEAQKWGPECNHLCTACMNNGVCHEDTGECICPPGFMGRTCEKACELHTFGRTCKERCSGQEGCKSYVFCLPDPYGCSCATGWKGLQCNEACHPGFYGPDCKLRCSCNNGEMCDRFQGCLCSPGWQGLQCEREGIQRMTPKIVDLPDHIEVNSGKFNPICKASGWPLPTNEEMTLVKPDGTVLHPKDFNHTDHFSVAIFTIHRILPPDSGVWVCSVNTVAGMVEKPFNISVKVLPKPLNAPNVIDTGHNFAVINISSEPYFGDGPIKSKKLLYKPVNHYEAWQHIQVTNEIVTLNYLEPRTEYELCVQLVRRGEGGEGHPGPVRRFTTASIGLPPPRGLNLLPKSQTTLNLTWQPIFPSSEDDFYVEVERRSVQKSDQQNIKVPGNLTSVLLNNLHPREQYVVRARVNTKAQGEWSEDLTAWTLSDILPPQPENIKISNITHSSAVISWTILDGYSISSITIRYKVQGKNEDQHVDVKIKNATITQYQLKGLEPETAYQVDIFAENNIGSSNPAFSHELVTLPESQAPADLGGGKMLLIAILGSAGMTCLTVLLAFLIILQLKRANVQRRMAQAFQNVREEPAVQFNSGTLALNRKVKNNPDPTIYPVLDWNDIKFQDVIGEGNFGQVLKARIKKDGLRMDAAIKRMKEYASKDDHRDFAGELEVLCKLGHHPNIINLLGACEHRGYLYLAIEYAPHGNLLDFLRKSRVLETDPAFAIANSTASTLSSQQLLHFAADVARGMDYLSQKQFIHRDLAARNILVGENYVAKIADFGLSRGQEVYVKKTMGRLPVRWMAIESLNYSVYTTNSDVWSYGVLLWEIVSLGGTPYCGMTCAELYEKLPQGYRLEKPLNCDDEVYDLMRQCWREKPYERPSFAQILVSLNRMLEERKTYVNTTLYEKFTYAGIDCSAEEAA
Assay [7] deals with Non-receptor tyrosine-protein kinase TYK2 (Homo sapiens) (UniProt P29597). Nature of the assay: Inhibition of T7 bacteriophage fused human TYK2 JH2 pseudokinase domain at 10 uM by KINOMEscan analysis relative to control.
Chain of Non-receptor tyrosine-protein kinase TYK2 (Homo sapiens) (P29597 whole entry, the tested form may be a part): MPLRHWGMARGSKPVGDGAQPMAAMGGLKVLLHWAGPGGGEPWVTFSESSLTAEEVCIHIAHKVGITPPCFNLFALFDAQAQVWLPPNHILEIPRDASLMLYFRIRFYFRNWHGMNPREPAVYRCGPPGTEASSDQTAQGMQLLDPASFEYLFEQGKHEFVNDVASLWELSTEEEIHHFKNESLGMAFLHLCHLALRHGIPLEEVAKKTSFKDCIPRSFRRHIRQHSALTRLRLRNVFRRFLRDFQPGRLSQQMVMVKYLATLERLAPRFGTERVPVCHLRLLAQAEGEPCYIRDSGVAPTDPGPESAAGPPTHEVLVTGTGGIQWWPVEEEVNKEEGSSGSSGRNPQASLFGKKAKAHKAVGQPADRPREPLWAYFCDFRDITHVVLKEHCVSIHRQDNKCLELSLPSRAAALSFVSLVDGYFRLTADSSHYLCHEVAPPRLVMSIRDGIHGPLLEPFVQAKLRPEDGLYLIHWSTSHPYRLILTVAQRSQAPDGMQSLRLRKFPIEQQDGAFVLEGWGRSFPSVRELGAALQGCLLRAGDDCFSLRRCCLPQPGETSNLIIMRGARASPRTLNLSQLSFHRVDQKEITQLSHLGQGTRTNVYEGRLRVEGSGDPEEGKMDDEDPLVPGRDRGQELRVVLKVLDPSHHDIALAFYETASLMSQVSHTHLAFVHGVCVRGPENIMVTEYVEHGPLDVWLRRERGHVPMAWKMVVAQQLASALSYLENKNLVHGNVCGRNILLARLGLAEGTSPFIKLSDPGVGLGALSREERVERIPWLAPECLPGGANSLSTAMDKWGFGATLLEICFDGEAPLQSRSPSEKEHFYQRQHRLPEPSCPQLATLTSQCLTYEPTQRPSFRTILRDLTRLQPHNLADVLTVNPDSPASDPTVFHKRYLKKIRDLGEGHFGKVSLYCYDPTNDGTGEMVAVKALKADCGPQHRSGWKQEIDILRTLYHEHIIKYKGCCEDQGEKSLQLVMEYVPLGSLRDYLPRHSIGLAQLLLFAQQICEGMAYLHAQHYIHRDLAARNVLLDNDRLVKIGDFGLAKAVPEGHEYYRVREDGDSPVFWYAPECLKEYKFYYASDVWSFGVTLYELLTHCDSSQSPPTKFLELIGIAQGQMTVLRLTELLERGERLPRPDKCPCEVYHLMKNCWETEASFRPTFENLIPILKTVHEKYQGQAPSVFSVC
Assay [8] has as its target Serine/threonine-protein kinase 32A (Homo sapiens) (UniProt Q8WU08). Nature of the assay: Inhibition of T7 bacteriophage fused human YANK1 at 10 uM by KINOMEscan analysis relative to control.
Assay [9] addresses T2, Mitogen-activated protein kinase kinase kinase 19 (Homo sapiens) (UniProt Q56UN5).
T2 sequence (whole entry): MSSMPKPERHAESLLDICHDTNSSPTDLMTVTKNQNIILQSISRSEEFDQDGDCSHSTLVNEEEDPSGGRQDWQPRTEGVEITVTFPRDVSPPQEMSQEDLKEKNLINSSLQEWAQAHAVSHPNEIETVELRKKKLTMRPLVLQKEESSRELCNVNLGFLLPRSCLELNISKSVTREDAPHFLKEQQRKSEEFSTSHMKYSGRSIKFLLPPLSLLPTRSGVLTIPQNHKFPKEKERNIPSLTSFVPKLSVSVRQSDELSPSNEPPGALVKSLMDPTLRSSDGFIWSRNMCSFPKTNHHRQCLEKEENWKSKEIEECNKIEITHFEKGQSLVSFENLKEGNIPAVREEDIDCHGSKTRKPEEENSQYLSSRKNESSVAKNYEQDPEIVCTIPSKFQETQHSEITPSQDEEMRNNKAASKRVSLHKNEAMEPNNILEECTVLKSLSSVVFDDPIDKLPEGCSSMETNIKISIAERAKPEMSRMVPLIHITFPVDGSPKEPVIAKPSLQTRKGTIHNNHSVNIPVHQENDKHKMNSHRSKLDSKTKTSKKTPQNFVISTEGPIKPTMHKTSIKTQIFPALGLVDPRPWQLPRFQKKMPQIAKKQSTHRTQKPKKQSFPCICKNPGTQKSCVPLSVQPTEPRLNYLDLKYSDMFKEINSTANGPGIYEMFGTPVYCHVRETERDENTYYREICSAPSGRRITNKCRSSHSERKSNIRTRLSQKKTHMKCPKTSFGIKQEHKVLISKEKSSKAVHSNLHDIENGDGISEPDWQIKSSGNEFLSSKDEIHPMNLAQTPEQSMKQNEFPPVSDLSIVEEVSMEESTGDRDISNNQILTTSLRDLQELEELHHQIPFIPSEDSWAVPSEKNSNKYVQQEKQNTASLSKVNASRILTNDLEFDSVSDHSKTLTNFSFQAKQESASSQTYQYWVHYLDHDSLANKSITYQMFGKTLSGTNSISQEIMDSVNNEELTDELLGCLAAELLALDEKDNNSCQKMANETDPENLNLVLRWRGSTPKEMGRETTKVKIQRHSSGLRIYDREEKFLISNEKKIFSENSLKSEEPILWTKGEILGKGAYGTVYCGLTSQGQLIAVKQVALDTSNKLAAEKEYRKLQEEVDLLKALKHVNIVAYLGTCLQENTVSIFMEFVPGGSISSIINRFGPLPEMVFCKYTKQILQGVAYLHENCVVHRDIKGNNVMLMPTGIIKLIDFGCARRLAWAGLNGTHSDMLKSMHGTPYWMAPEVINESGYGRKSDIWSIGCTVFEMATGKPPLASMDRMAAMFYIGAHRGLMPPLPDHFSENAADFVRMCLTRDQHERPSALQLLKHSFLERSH
Nature of the assay: Inhibition of T7 bacteriophage fused human YSK4 at 10 uM by KINOMEscan analysis relative to control.

The target in assay [10] is Serine/threonine-protein kinase 4 (Homo sapiens) (UniProt Q13043). The assay is described as follows: Inhibition of T7 bacteriophage fused human MST1 at 10 uM by KINOMEscan analysis relative to control; values are per cent of control.
Chain of Serine/threonine-protein kinase 4 (Homo sapiens) (Q13043 whole entry, looked up, the tested form may be a part): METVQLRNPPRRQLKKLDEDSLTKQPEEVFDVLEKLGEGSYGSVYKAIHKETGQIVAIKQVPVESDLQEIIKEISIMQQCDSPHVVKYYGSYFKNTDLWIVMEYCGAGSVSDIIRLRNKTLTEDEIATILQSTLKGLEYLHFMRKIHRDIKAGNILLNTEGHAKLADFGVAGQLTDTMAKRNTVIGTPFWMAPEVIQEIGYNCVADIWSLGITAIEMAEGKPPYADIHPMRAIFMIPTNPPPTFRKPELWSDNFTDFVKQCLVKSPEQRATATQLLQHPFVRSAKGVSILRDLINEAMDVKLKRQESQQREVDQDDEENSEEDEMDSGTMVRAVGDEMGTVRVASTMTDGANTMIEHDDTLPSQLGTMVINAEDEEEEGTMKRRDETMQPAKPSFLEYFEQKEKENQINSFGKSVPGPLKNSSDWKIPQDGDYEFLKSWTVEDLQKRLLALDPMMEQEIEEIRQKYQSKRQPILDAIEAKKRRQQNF

Chain of Serine/threonine-protein kinase 32A (Homo sapiens) (Q8WU08 whole entry, the tested form may be a part): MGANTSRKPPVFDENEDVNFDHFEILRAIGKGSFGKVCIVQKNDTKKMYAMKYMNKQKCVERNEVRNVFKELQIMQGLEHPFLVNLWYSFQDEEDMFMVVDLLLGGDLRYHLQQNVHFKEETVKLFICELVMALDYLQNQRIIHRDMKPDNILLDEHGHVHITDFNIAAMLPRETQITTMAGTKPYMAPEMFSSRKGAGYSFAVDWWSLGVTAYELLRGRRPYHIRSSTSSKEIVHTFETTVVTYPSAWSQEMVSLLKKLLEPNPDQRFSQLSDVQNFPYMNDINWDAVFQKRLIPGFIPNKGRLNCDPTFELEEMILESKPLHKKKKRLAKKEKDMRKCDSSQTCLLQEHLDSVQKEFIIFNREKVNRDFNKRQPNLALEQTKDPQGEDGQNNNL

Consider `COc1cc(C(=O)N2CCC(N3CCN(C)CC3)CC2)ccc1Nc1ncc2c(n1)N(C1CCCC1)c1ccccc1C(=O)N2C`, for which the inhibition in assay [1], in assay [2], in assay [3], in [4], in assay [5] and in [6] was 100% throughout. Moreover, the inhibition in assay [7], in [8] and in assay [9] was 100% throughout. The compound further displayed a residual activity in assay [10] of 100%.

Take `COc1cc(N2CCC(N3CCN(C)CC3)CC2)ccc1Nc1ncc2c(n1)N(C)c1ccccc1C(=O)N2C`: the inhibition in assay [1] was 100%; in assay [2], 100%; in [3], 98%; in assay [4] it was 100%; in assay [5], 100%; in assay [6], 100%. Also, the inhibition in [7] came to 100%; in assay [8], 100%; in assay [9], 99%. This compound also yielded a residual activity in assay [10] of 100%.

For the compound `CCOc1cc(C(=O)N2CCC(N3CCN(C)CC3)CC2)ccc1Nc1ncc2c(n1)N(C1CCCC1)c1ccccc1C(=O)N2C`, the inhibition in assay [1], in assay [2], in [3], in assay [4], in [5] and in assay [6] was 100% each time. Besides, the inhibition in assay [7], in assay [8] and in assay [9] was 100% throughout. Besides, the residual activity in assay [10] was 100%.
